Values of other authors as cited in paper PMC9406037, “Design, Synthesis and Activity of New N^1-Alkyl Tryptophan Functionalized Dendrimeric Peptides against Glioblastoma” (Biomolecules, 2022).

What was measured:
[1] = alpha-tocopherol at ca 4.4 µM
Description: Taking into account structural differences between these two groups of dendrimers, the possible primary mechanism in the DPPH conditions involves hydrogen and electron transfer from the above electron-rich center and to less extent from numerous indole rings. For the same reasons, the highest reductive capabilities (FRAP) were expressed by compound 24. All compounds were very effective in s ...

[2] = tested on: U87MG cells cultured in spheroids; conditions: 20 µM alone or in combination with iododeoxyuridine (IUdR 1 µM) for 67 h; clonogenicity observed 10 day later
Description: Another important issue which has to be taken into consideration is the time of treatment with potential drugs and mode of action. […] […] However, combined treatment o ...

Compound: Cc1c(C)c2c(c(C)c1O)CC[C@@](C)(CCC[C@H](C)CCC[C@H](C)CCCC(C)C)O2 [alpha-tocopherol]
- radical scavenging potency relative to Trolox, ABTS model [1]: ~5.5
- radical scavenging potency relative to Trolox, DPPH model [1]: slightly lower

Compound: trans-3,4,5′-trihydroxystilbene [Resveratrol]
- radical scavenging potency relative to Trolox, ABTS model [1]: much more potent than Trolox
- radical scavenging potency relative to Trolox, DPPH model [1]: much more potent than Trolox
- effect on cell viability or clonogenicity [2]: without any effect on cell viability or clonogenicity
